# Experimental data as given in US20120202801A1, “METHODS FOR TREATING BREAST CANCER” (priority 2009, published 2012).
# Marks after values point to notes of the source that are not given here.
# Assays:
# HT1080 cells = assay: Cell cycle analysis by propidium iodide flow cytometry in HT1080 cells (% cells in S-phase); type: cell-based, human; conditions: for % Cells In S-Phase: HT1080 cells, 100 nM, 18 hours, normoxic, DMSO control 17.3
# Method: Experimental Design. […] After treatment, cells were trypsinized, and stained with propidium iodide (PI) dye to measure DNA content of individual cells by flow cytometry. Output comprised histograms showing relative DNA content in 10,000 cells.
# While compounds which cause greater than 20% of the cells to accumulate in S-phase at 100 nM are considered active, a larger percentage of cells may be accumulated in S-phase at lower doses depending on the Compound, as shown in FIG. 12 for example.
# [1] = test system: hypoxia-inducible endogenous VEGF expression; assay: Hypoxia-inducible endogenous VEGF expression ELISA in HeLa cells, dose-response (EC50, Table 3); conditions: Homo sapiens, read-out: ELISA EC50 μM
# HT1080 xenografts [2] = assay: HT1080 xenograft tumor growth, Compound 1205, 1330 and Compound #10 (studies 21-24b); type: in vivo, mice
# Description: Experimental Design. HT1080 cells (5×10^6 cells/mouse) were implanted subcutaneously in male athymic nude mice. […] For comparison, Compound #10 was included in this study.
# [3] = test system: human VEGF121 and VEGF165; assay: Intra-tumor and pathologic plasma human VEGF in HT1080 xenografts, Compound 1205 (studies #21, #23); type: in vivo, mice
# Description: Experimental Design. HT1080 cells (5×10^6 cells/mice) were implanted subcutaneously into male athymic nude mice. Treatment with vehicle alone or Compound 1205 was initiated when the median tumor volume was approximately 311±88 mm^3. Table 7 and Table 9 (study design #21 and #23) provide the study design for assessing tumor and plasma pathologic VEGF concentrations—each group in each study included eight (8) mice. When the tumors in vehicle-treated mice had reached the target size of ˜1200 mm^3 for study #21 and ˜1500 mm^3 for study #23, all mice in the study were sacrificed, and excised tumors were homogenized in buffer containing protease inhibitors. Both intra-tumor and pathologic plasma human VEGF levels were measured using an ELISA that recognizes human VEGF121 and VEGF165. Intra-tumor VEGF levels were normalized to the total tumor protein concentration and pathologic plasma VEGF levels were expressed in pg/mL. Because smaller tumors produce less VEGF per mg of tumor protein, intra-tumor VEGF levels were normalized to tumor size.
# MCF-7p xenografts [4] = assay: Aggressive MCF-7p estrogen-sensitive breast cancer xenograft, combination with paclitaxel; type: in vivo, mice
# Method: (§1) Experimental Design. Aggressively growing, estrogen-sensitive MCF 7 breast cancer cells (hereafter referred to as MCF-7p) were passaged in vivo prior to use to generate a more aggressive cell line. Tumors were excised from donor mice, passed through a sterile mesh, and suspended in 0.9% sodium chloride, and 20 mg of this suspension was mixed 1:1 with Matrigel™. These tumor fragments were implanted subcutaneously into female athymic nude mice bearing estrogen pellets (0.72 mg/pellet) that had been inserted 2 days previously. After 28 days, when the tumors had become established and grown to a substantial size (i.e., the mean tumor size had reached ˜430 mm^3), mice were divided into 4 groups, and treatment was administered as shown in Table 30.
# Tumor size was measured by calipers at periodic intervals during the study. After tumors in a given group had reached an average size of ˜1500 mm^3, the mice in that group were sacrificed; after 72 days of treatment, any remaining groups were taken off study.
# MCF-7 xenografts = assay: MCF-7 estrogen-sensitive breast cancer xenograft, combination with tamoxifen; type: in vivo, mice
# Method: Experimental Design. […] Estrogen pellets (0.72 mg/pellet) were implanted in the mice 9 days prior to cell implantation.
# Tumor size was measured by calipers at periodic intervals during the study. After 42 days of treatment, the mice were sacrificed.
# MCF-7p xenografts [5] = assay: Aggressive MCF-7p estrogen-sensitive breast cancer xenograft, combination with tamoxifen; type: in vivo, mice
# Method: as §1, with “Aggressively” for “Experimental Design. Aggressively”, “˜435” for “˜430”, “34.” for “30.”
# Tumor size was measured by calipers at periodic intervals during the study. When the mean tumor size in a group had reached 1500 mm^3, or after 72 days of treatment, the mice in the group were sacrificed.
# HT1080 xenografts [6] = assay: BrdU labeling of tumor cells from HT1080 xenografts in vivo; set-up: species or system mice; conditions: 1, 2, or 3 days of treatment
# Method: (§2) Experimental Design. HT1080 cells (5×10^6 cells/mouse) were implanted subcutaneously in male athymic nude mice.
# The mice were sacrificed 3 hours later, and the tumors collected. A single cell suspension was prepared from the tumor cells. The cells were permeabilized and an antibody to BrdU was used to stain cells that had entered S phase during the labeling period. The proportion of cells actively synthesizing DNA was determined by cell sorting.
# HT1080 xenografts [7] = assay: Time course of tumor size and plasma human VEGF in HT1080 xenografts; type: in vivo, mice; conditions: by Day 1
# Method: as §2
# Tumor size was measured by calipers immediately pre-treatment and at the time of sacrifice on Day 1, 2, or 3 (5 mice per group per day). At sacrifice, the plasma was collected for assay of pathologic human VEGF concentration using an ELISA that recognizes human VEGF121 and VEGF165 (as described in Section 9.1.1.1).
# [8] = test system: aromatase-overexpressing MCF-7 xenografts; assay: Aromatase-overexpressing MCF-7 breast cancer xenograft, combination with letrozole; type: in vivo, mice; conditions: for Mean % Inhibition of Tumor Size vs Vehicle at Day 42 / Proportion Cured: aromatase-overexpressing MCF-7 xenografts, nude mice
# Method: Experimental Design. Aromatase-overexpressing, estrogen-sensitive MCF-7 cells (7.0×10^6 cells/mouse) were implanted subcutaneously in ovariectomized female athymic nude mice. Androstenedione pellets (6 mg/pellet) were implanted 1 day prior to cell implantation.
# Tumor size was measured by calipers at periodic intervals during the study. When the individual tumor size in a mouse exceeded 1500 mm^3, or after 98 days of treatment, that mouse was sacrificed.
# [9] = Paclitaxel alone, 10 mg/kg IV Days 2, 5, 9, 12, 15, nude mice
# [10] = 42 days of treatment, combination = Compound #10 with tamoxifen
# [11] = Tamoxifen alone, 10 mg/kg QD, nude mice
# [12] = Tamoxifen alone, 8 mg/kg Oral QD, nude mice
# [13] = Letrozole (high-dose), 30 μg/mouse Oral QD
# [14] = Letrozole (low-dose), 10 μg/mouse Oral QD
compound,measurement,setting,value
O=C(Oc1ccc(Cl)cc1)N1CCc2c([nH]c3ccc(Cl)cc23)C1c1ccc(OCCN2CCCCC2)cc1 (stereo not shown),% Cells In S-Phase,HT1080 cells,16.8%
O=C(Oc1ccc(F)cc1)N1CCc2c([nH]c3ccc(Cl)cc23)C1c1ccc(OCCCN2CCOCC2)cc1 (stereo not shown) [Compound 989],EC50,[1],< 0.008 µM
COCCN(CCCOc1ccc(C2c3[nH]c4ccc(Cl)cc4c3CCN2C(=O)Oc2ccc(F)cc2)cc1)CCOC (stereo not shown) [Compound 990],EC50,[1],< 0.008 µM
O=C(Oc1ccc(F)cc1)N1CCc2c([nH]c3ccc(Cl)cc23)C1c1ccc(OCCCN2CCSCC2)cc1 (stereo not shown) [Compound 991],EC50,[1],0.04 to 0.2 µM
COCCN(C)CCCOc1ccc(C2c3[nH]c4ccc(Cl)cc4c3CCN2C(=O)Oc2ccc(F)cc2)cc1 (stereo not shown) [Compound 992],EC50,[1],0.04 to 0.2 µM
CN1CCN(CCCOc2ccc(C3c4[nH]c5ccc(Cl)cc5c4CCN3C(=O)Oc3ccc(F)cc3)cc2)CC1 (stereo not shown) [Compound 993],EC50,[1],< 0.008 µM
O=C(Oc1ccc(Cl)cc1)N1CCc2c([nH]c3ccc(Cl)cc23)[C@@H]1c1ccc(OCC[C@H](O)CO)cc1 [Compound 1205],Final mean terminal tumor size in treatment group,HT1080 xenografts [2]; Study 21: 3 mg/kg QD,379 mm^3
same,Final mean terminal tumor size in treatment group,HT1080 xenografts [2]; Study 22: 0.5 mg/kg QD,1750 mm^3
same,Difference vs. vehicle in median number of days to reach 1000 mm^3,HT1080 xenografts [2]; Study 22: 3 mg/kg QD,14** Days
same,Final mean terminal tumor size in treatment group,HT1080 xenografts [2]; Study 22: 3 mg/kg QD,1840 mm^3
same,Difference vs. vehicle in median number of days to reach 1000 mm^3,HT1080 xenografts [2]; Study 24a: 10 mg/kg QD,14** Days
same,Mean difference in tumor growth rate at the Day that the vehicle-treated tumors taken off study (%),"HT1080 xenografts [2]; Study 24a: 10 mg/kg QD, Day 11",76%**
same,Difference vs. vehicle in median number of days to reach 1000 mm^3,HT1080 xenografts [2]; Study 24b: 0.3 mg/kg QD,0.7 days
same,Final mean terminal tumor size in treatment group,HT1080 xenografts [2]; Study 24b: 0.3 mg/kg QD,1540 mm^3
same,inhibition of both tumor and pathologic plasma human VEGF levels,[3]; 0.5 or 3 mg/kg QD,more than 95%
same,Mean difference in human tumor VEGF (%) at Day 14,"[3]; Study #21, 3 mg/kg QD, 14 days",98%**
Cc1ccc(OC(=O)N2CCc3c([nH]c4ccc(Cl)cc34)[C@@H]2c2ccc(OCCC(O)CN3CCOCC3)cc2)cc1 (stereo partly shown) [Compound 1302],EC50,[1],0.04 to 0.2 µM
CN(C)CCN(C)CCCOc1ccc([C@H]2c3[nH]c4ccc(Cl)cc4c3CCN2C(=O)Oc2ccc(Cl)cc2)cc1 [Compound 1611],EC50,[1],< 0.008 µM
COc1ccc(C2c3[nH]c4ccc(Cl)cc4c3CCN2C(=O)Oc2ccc(Cl)cc2)cc1 (stereo not shown) [Compound #10],EC50,[1],< 0.008 µM
"CC(=O)O[C@H]1C(=O)[C@@]2(C)[C@H]([C@H](OC(=O)c3ccccc3)[C@]3(O)C[C@H](OC(=O)[C@H](O)[C@@H](NC(=O)c4ccccc4)c4ccccc4)C(C)=C1C3(C)C)[C@]1(OC(C)=O)CO[C@@H]1C[C@@H]2O [Paclitaxel, paclitaxel]",tumor growth,MCF-7p xenografts [4],transient cytoreduction and a tumor growth delay
same,Mean % Inhibition of Tumor Size vs Vehicle at Day 26,MCF-7p xenografts [4]; [9],78* %
same,Median Time to Tumor Size ≧1000 mm^3,MCF-7p xenografts [4]; [9],47 days
"CC/C(=C(\c1ccccc1)c1ccc(OCCN(C)C)cc1)c1ccccc1 [Tamoxifen, tamoxifen]",mice cured (%),MCF-7 xenografts; [10],70%
same,mice cured (number),MCF-7 xenografts; [10],7 of the 10
same,Mean % Inhibition of Tumor Size vs Vehicle at Day 42,MCF-7 xenografts; [11],84%
same,Proportion Cured,MCF-7 xenografts; [11],70%
same,tumor regression and growth delay,MCF-7 xenografts; combination = Compound #10 with tamoxifen,tumor regression and growth delay were observed
same,tumor growth,MCF-7p xenografts [5],only modestly delayed tumor growth
same,Mean % Inhibition of Tumor Size vs Vehicle at Day 26,MCF-7p xenografts [5]; [12],33* %
same,Median Time to Tumor Size ≧1000 mm^3,MCF-7p xenografts [5]; [12],24 days
COc1cccc2c1C(=O)c1c(O)c3c(c(O)c1C2=O)C[C@@](O)(C(=O)CO)C[C@@H]3O[C@H]1C[C@H](N)[C@H](O)[C@H](C)O1 [doxorubicin],BrdU staining of tumor cells (proportion of cells in S phase),HT1080 xenografts [6],decreased the percentage of tumor cells staining with BrdU
same,pathologic plasma human VEGF levels vs control,HT1080 xenografts [7],numerically lower than in control animals
O=C(Oc1ccc(Cl)cc1)N1CCc2c([nH]c3ccc(Cl)cc23)C1c1ccc(OCCN2CCOCC2)cc1 (stereo not shown) [drawing 535],% Cells In S-Phase,HT1080 cells,16.4%
N#Cc1ccc(C(c2ccc(C#N)cc2)n2cncn2)cc1 [letrozole],Mean % Inhibition of Tumor Size vs Vehicle at Day 42,[8]; [13],79%
same,Proportion Cured,[8]; [13],20%
same,Mean % Inhibition of Tumor Size vs Vehicle at Day 42,[8]; [14],72%
same,Proportion Cured,[8]; [14],10%
same,tumor growth,[8]; high-dose letrozole,tumor regression was observed
same,tumor growth,[8]; low-dose letrozole,tumor growth was prevented but tumor reduction was not observed
"NC(Cn1ccc(=O)c(O)c1)C(=O)O (stereo not shown) [mimosine, reference compound]",delay or prolongation of the cell cycle,"HT1080 cells; same tumor cells, data not shown",does not delay or prolong the cell cycle or reduce VEGF production
